Results published in ChEMBL document CHEMBL4765484, “Development of Orally Efficacious Allosteric Inhibitors of TNFα via Fragment-Based Drug Design” (J Med Chem, 2021).
≈ marks a conversion by molar mass, not a printed value. Calls of active or inactive are those of the source. No cut-off for these calls is given here.

What was measured:
[1] = molecular target: T1, Tumor necrosis factor (Homo sapiens, UniProt P01375)
Description: Inhibition of probe-5 binding to human TNFalpha (77 to 233 residues) at 1 nM by fluorescence polarization assay

[2] = molecular target: T1, Tumor necrosis factor; remark: listed apart in the source
Description: Binding affinity to biotinylated human TNFalpha trimer (77 to 233 residues) expressed in Escherichia coli BL21(DE3) by SPR analysis

[3] = molecular target: T1, Tumor necrosis factor; remark: listed apart in the source
Description: Induction of stabilization of biotinylated human TNFalpha trimer (77 to 233 residues) expressed in Escherichia coli BL21(DE3) assessed as change in melting temperature

[4] = Unbound clearance in CD1 mouse at 1 mg/kg, iv after 24 hrs by HPLC-MS/MS analysis; assay type: ADME, organism-based; details: in vivo
[5] = Half life in CD1 mouse at 1 mg/kg, po after 24 hrs by HPLC-MS/MS analysis; assay type: ADME, organism-based; details: in vivo
[6] = Unbound AUC in CD1 mouse at 1 mg/kg, po after 24 hrs by HPLC-MS/MS analysis; assay type: ADME, organism-based; details: in vivo
[7] = Volume of distribution at steady state in CD1 mouse at 1 mg/kg, iv after 24 hrs by HPLC-MS/MS analysis; assay type: ADME, organism-based; details: in vivo, read-out: Vdss
[8] = AUC in CD1 mouse at 1 mg/kg, po after 24 hrs by HPLC-MS/MS analysis; assay type: ADME, organism-based; parameters: route oral, time 24 hrs, dose 1 mg/kg; details: in vivo
[9] = Cmax in CD1 mouse at 1 mg/kg, po after 24 hrs by HPLC-MS/MS analysis; assay type: ADME, organism-based; parameters: route oral, dose 1 mg/kg, time 24 hrs; details: in vivo
[10] = (§1) Selectivity index, ratio of Cmax in DBA/J mouse model of CFA and glucose-6-phosphate isomerase-induced arthritis model at 30 mg/kg, po BID beginning 1 hr prior to GPI immunization and measured up to day 17 after GPI immunization by HPLC-MS/MS analysis to EC50 for inhibition of TNFalpha in mouse L929 cells exposed to compound incubated for 1 hr with mouse TNFalpha by luminescence based assay; details: time 17 day
[11] = Drug uptake in DBA/J mouse model of CFA and glucose-6-phosphate isomerase-induced arthritis model at 10 to 100 mg/kg, po BID beginning 1 hr prior to GPI immunization and measured up to day 17 after GPI immunization by HPLC-MS/MS analysis; assay type: ADME, organism-based; details: in vivo, 408 h, dose 10-100 mg/kg, time 17 day
[12] = AUC (0 to 12 hrs) in DBA/J mouse model of CFA and glucose-6-phosphate isomerase-induced arthritis model at 30 mg/kg, po BID beginning 1 hr prior to GPI immunization and measured up to day 17 after GPI immunization by HPLC-MS/MS analysis; assay type: ADME, organism-based; parameters: route oral, time 17 day, dose 30 mg/kg; details: in vivo
[13] = Cmax in DBA/J mouse model of CFA and glucose-6-phosphate isomerase-induced arthritis model at 100 mg/kg, po BID beginning 1 hr prior to GPI immunization and measured up to day 17 after GPI immunization by HPLC-MS/MS analysis; assay type: ADME, organism-based; parameters: route oral, time 17 day, dose 100 mg/kg; details: in vivo
[14] = as §1, with “10” for “30”; details: time 17 day
[15] = Oral bioavailability in CD1 mouse at 1 mg/kg after 24 hrs by HPLC-MS/MS analysis; assay type: ADME, organism-based; details: in vivo
[16] = Cmax in DBA/J mouse model of CFA and glucose-6-phosphate isomerase-induced arthritis model at 30 mg/kg, po BID beginning 1 hr prior to GPI immunization and measured up to day 17 after GPI immunization by HPLC-MS/MS analysis; assay type: ADME, organism-based; parameters: route oral, time 17 day, dose 30 mg/kg; details: in vivo
[17] = as §1, with “100” for “30”
[18] = Blood clearance in CD1 mouse at 1 mg/kg, iv after 24 hrs by HPLC-MS/MS analysis; assay type: ADME, organism-based
[19] = Tmax in CD1 mouse at 1 mg/kg, po after 24 hrs by HPLC-MS/MS analysis; assay type: ADME, organism-based; details: in vivo
[20] = molecular target: T1, Tumor necrosis factor; remark: listed apart in the source
Description: Binding affinity to biotinylated human TNFalpha trimer (77 to 233 residues) expressed in Escherichia coli BL21(DE3) assessed as binding half life by SPR analysis

[21] = AUC (0 to 12 hrs) in DBA/J mouse model of CFA and glucose-6-phosphate isomerase-induced arthritis model at 10 mg/kg, po BID beginning 1 hr prior to GPI immunization and measured up to day 17 after GPI immunization by HPLC-MS/MS analysis; assay type: ADME, organism-based; parameters: route oral, time 17 day, dose 10 mg/kg; details: in vivo
[22] = Cmax in DBA/J mouse model of CFA and glucose-6-phosphate isomerase-induced arthritis model at 10 mg/kg, po BID beginning 1 hr prior to GPI immunization and measured up to day 17 after GPI immunization by HPLC-MS/MS analysis; assay type: ADME, organism-based; parameters: route oral, time 17 day, dose 10 mg/kg; details: in vivo
[23] = AUC in CD1 mouse at 1 mg/kg, iv after 24 hrs by HPLC-MS/MS analysis; assay type: ADME, organism-based; parameters: route intravenous, dose 1 mg/kg, time 24 hrs; details: in vivo
[24] = AUC (0 to 12 hrs) in DBA/J mouse model of CFA and glucose-6-phosphate isomerase-induced arthritis model at 100 mg/kg, po BID beginning 1 hr prior to GPI immunization and measured up to day 17 after GPI immunization by HPLC-MS/MS analysis; assay type: ADME, organism-based; parameters: route oral, dose 100 mg/kg, time 17 day; details: in vivo
[25] = system: Mus musculus; test: Antiarthritic activity in DBA/J mouse model of CFA and glucose-6-phosphate isomerase-induced arthritis model assessed as inhibition of paw swelling at 30 to 100 mg/kg, po BID beginning 1 hr prior to GPI immunization and measured on days 13, 15, and 17 after GPI immunization; assay type: functional, organism-based; details: dose 30-100 mg/kg, time 13-17 day
[26] = Half life in CD1 mouse at 1 mg/kg, iv after 24 hrs by HPLC-MS/MS analysis; assay type: ADME, organism-based; details: in vivo
[27] = Solubility in phosphate buffer at pH 7.4; assay type: physicochemical
[28] = Fraction unbound in plasma (unknown origin); assay type: ADME, cell-free
[29] = Intrinsic clearance in mouse liver microsomes; assay type: ADME, Microsome; details: read-out: CLH (converted)
[30] = Intrinsic clearance in human liver microsomes; assay type: ADME, Microsome; details: read-out: CLH (converted)
[31] = molecular target: T1, Tumor necrosis factor; details: dose 1.0 nM, TDE = time-dependent effect

T1 sequence (P01375 whole entry): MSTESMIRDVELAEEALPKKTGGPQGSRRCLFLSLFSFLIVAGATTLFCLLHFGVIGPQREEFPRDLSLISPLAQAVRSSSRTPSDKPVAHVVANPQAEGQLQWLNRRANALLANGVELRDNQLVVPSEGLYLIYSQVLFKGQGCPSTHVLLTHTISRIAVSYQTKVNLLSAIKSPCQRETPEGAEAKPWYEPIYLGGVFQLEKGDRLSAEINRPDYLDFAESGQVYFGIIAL

Question: Which results are given for `c1ccc(-c2cccc3ccncc23)cc1`?
Answer: IC50 [1]: 25300 nM; Kd [2]: 60000 nM

Question: For `c1ccc(-c2cccc3ccncc23)c(OCCc2ccc(-c3cccc4ccncc34)cc2)c1`, which IC50 [1] is on record?
Answer: 1350 nM

Question: What about the ΔTm [3] of the same compound?
Answer: 7 °C

Question: What about the Kd [2] of the same compound?
Answer: 74 nM

Question: For `c1ccc(Cn2cnc3ccccc32)cc1`, which IC50 [1] is on record?
Answer: 204000 nM

Question: What about the Kd [2] of the same compound?
Answer: 300000 nM

Question: Which results are given for `CC1(C)C(=O)c2ccc(-c3cnc(N4CCN5C(=O)NC[C@@H]5C4)nc3)cc2N1Cc1cccnc1C#N`?
Answer: CL free [4]: 198 mL/min/kg; half-life [5]: 1.6 h; fAUC [6]: 42.4 ng·h/mL; Vd [7]: 2.12 L/kg; AUC at 24 h [8]: 263 ng·h/mL; Cmax [9]: 81.7 ng/mL; IC50 [1]: 71 nM; Ratio [10]: 8.3; Drug uptake [11]: Dose-dependent effect; AUC at 408 h [12]: 10200 ng·h/mL; Cmax [13]: 6190 ng/mL; Ratio [14]: 2.1; bioavailability [15]: 50.4%; Cmax [16]: 2980 ng/mL; Ratio [17]: 17; clearance [18]: 32 mL/min/kg; Tmax [19]: 1 h; T1/2 [20]: 0.9 h; AUC at 408 h [21]: 3830 ng·h/mL; Cmax [22]: 767 ng/mL; AUC at 24 h [23]: 523 ng·h/mL; Kd [2]: 6.8 nM; AUC at 408 h [24]: 46300 ng·h/mL; Activity [25]: Active; half-life [26]: 1.1 h

Question: Which results are given for `CN1CCN(Cc2ccc(-c3c[nH]c4ccncc34)c(OCCc3ccc(-c4cccc5ccncc45)cc3)c2)CC1`?
Answer: IC50 [1]: 29 nM; ΔTm [3]: > 15 °C; Kd [2]: 2.4 nM

Question: Which CL free [4] does the source give for `C[C@@H]1CN(c2ncc(-c3ccc4c(c3)N(Cc3ccccc3OC(F)F)C(C)(C)C4=O)cn2)CCN1C(=O)CO` here?
Answer: 2100 mL/min/kg

Question: What about the half-life [5] of the same compound?
Answer: 4.7 h

Question: What about the fAUC [6] of the same compound?
Answer: 6.86 ng·h/mL

Question: What about the Vd [7] of the same compound?
Answer: 2.12 L/kg

Question: And the AUC at 24 h [8]?
Answer: 2340 ng·h/mL

Question: What about the Cmax [9] of the same compound?
Answer: 200 ng/mL

Question: And the IC50 [1]?
Answer: 189 nM

Question: And the solubility [27]?
Answer: 1.2 µM (≈ 0.662 µg/mL)

Question: And the fraction unbound [28]?
Answer: 0.00293

Question: What about the CLint scaled [29] of the same compound?
Answer: 1680 mL/min/kg

Question: What about the bioavailability [15] of the same compound?
Answer: 75.4%

Question: What about the clearance [18] of the same compound?
Answer: 6.15 mL/min/kg

Question: And the Tmax [19]?
Answer: 1.8 h

Question: What about the CLint scaled [30] of the same compound?
Answer: 2280 mL/min/kg

Question: What about the T1/2 [20] of the same compound?
Answer: 42.8 h

Question: And the AUC at 24 h [23]?
Answer: 3110 ng·h/mL

Question: What about the Kd [2] of the same compound?
Answer: 1.3 nM

Question: What about the half-life [26] of the same compound?
Answer: 4.4 h

Question: For `Cc1nc2ccccc2n1Cc1ccccc1`, which Kd [2] is on record?
Answer: 325000 nM

Question: What does the source list for `C[C@@H]1CN(c2ncc(-c3ccc4c(c3)N(Cc3cccnc3C#N)C(C)(C)C4=O)cn2)CCN1C(=O)CO`?
Answer: CL free [4]: 955 mL/min/kg; half-life [5]: 2 h; fAUC [6]: 9.6 ng·h/mL; Vd [7]: 17.3 L/kg; AUC at 24 h [8]: 62.7 ng·h/mL; Cmax [9]: 16.7 ng/mL; IC50 [1]: 163 nM; solubility [27]: 48.4 µM (≈ 24.8 µg/mL); fraction unbound [28]: 0.137; bioavailability [15]: 50.8%; clearance [18]: 146 mL/min/kg; Tmax [19]: 1 h; T1/2 [20]: 62.3 h; AUC at 24 h [23]: 124 ng·h/mL; Kd [2]: 7.3 nM; half-life [26]: 1.4 h

Question: Which Kd [2] does the source give for `Cc1ccc(Cn2cnc3ccccc32)c(C)c1` here?
Answer: 106000 nM

Question: For `N#CCc1ccc(-c2cccc3ccncc23)cc1`, which IC50 [1] is on record?
Answer: 7960 nM

Question: What about the ΔTm [3] of the same compound?
Answer: 4 °C

Question: And the Kd [2]?
Answer: 2700 nM

Question: With `O=C(NCCOCCOCCOCc1ccc(-c2cccc3ccncc23)c(OCCc2ccc(-c3cccc4ccncc34)cc2)c1)c1ccc2c(c1)C(=O)OC21c2cc(F)c(O)cc2Oc2cc(O)c(F)cc21` as the compound, how does the Activity [31] read?
Answer: Tde
